Source: the NIST ThermoML archive (doi:10.1016/j.jct.2018.01.023)
Numbers after ± are expanded uncertainties.

Conditions: Crystal; for mass density: 101.33 kPa, X-ray diffraction; for Normal melting temperature: DTA

mass density (293 K) [kg/m3]	mass density (473 K) [kg/m3]	mass density (573 K) [kg/m3]	mass density (673 K) [kg/m3]	mass density (773 K) [kg/m3]	mass density (873 K) [kg/m3]	mass density (973 K) [kg/m3]	SMILES	Normal melting temperature [°C]
2634 ± 2	2576 ± 12	2554 ± 11	2522 ± 12	2493 ± 13	2455 ± 12	2432 ± 9	[F-].[Li+] [lithium fluoride]	845 ± 10
–	–	–	–	–	–	–	[F-].[F-].[F-].[K+].[Ni+2] [nickel potassium fluoride (KNiF3)]	1120 ± 20
2530 ± 12	–	–	–	–	–	–	[F-].[K+] [potassium fluoride]	856 ± 10

SMILES	mass density (293 K) [kg/m3]	mass density (473 K) [kg/m3]	mass density (573 K) [kg/m3]	mass density (673 K) [kg/m3]	mass density (773 K) [kg/m3]	mass density (873 K) [kg/m3]	mass density (973 K) [kg/m3]	Normal melting temperature [°C]
[F][Ni][F] [nickel difluoride]	4808 ± 24	–	–	–	–	–	–	1356 ± 10
